Two molecules from patent US4537895A, “Isoquinoline derivatives” (EGYT Gyogyszervegyeszeti Gyar, priority 1982, dated 1985) can be followed below.

The test system of data set [1] is decrease of the rectal temperature caused by reserpine. As to the kind of experiment: Test 6: reserpine-induced decrease of rectal temperature. It is filed as in vivo. As to conditions: for TI (Test 6), LD/ED quotient: LD50 / ED of Test 6; for minimal effective dose: Mus musculus, sc, read-out: ED, lowest s.c. dose which still hinders the decrease of the rectal temperature caused by reserpine (Test 6). The method, then: 6. The lowest s.c. dose which still hinders the decrease of the rectal temperature caused by the administration of a 1,6 umole/kg dose of reserpine.
(§1) The acute toxicity data are determined in mice. Tests 2-6 are also carried out in mice. The doses are expressed in micromole/kg. The therapeutical index (TI) is the LD/ED quotient.
(§2) Tests 2, 8, 9 and 10 are suitable for the evaluation of the dopaminerg stimulating effect of the test compounds (potential anti-parkinson agent). Tests 4, 5, 6 and 7 give information about the catecholamine-uptake inhibiting effect (potential antidepressive activity).

Data set [2] in a line: Acute toxicity, s.c., LD50. Details: species or system mice. Particulars: mouse, in vivo; for LD50 at 96 h: sc, mice, 96 hour observation. How it is done: as §1
In data set [3] the test system is ptosis induced by tetrabenazine. The experiment in a line: Test 5: inhibition of tetrabenazine-induced ptosis. It is filed as in vivo. Particulars: for TI (Test 5), LD/ED quotient: LD50 / ED of Test 5; for ED50: Mus musculus, sc, read-out: ED, s.c. dose which inhibits the ptosis induced by tetrabenazine in 50% of the mice (Test 5). The method, then: 5. S.c. dose which inhibits the ptosis induced by a dose of 79 umole/kg of tetrabenazine, in 50% of the mice.
as §1, §2

For data set [4], the system named is catalepsy induced by Haloperidol. The experiment in a line: Test 2: inhibition of haloperidol-induced catalepsy. It is filed as in vivo. Particulars: for TI (Test 2), LD/ED quotient: LD50 / ED of Test 2; for ED50: Mus musculus, sc, read-out: ED, s.c. dose which inhibits the catalepsy induced by Haloperidol in 50% of the mice (Test 2). The method, then:
(§3) 2. S.c. dose which inhibits the catalepsy induced by a 13 umole/kg dose of Haloperidol, in 50% of the mice.
as §1, §2

Data set [5] relates to catalepsy induced by Haloperidol / tetrabenazine. The experiment in a line: Comparison of anti-haloperidol (Test 2) and anti-tetrabenazine (Test 4) activity. It is filed as in vivo, mice. Particulars: for Quotient of the ED values of Columns 2 and 4: ED Test 2 (haloperidol) : ED Test 4 (tetrabenazine). How it is done: as §3
(§4) 4. S.c. dose which inhibits the catalepsy induced by a 110 umole/kg dose of tetrabenazine, in 50% of the mice.
as §1
On comparing the dopaminerg type anti-haloperidol test and the anti-tetrabenazine activity being characteristic of the antidepressive effect the following can be stated:
The quotient of the ED values of Columns 2 and 4 is the highest for Compound I (55:13=4.2). […] The said quotient is high in the case of Nomifensine (1.6), Compound D (1.8), Compound E (2.7) and Compound F (1.7).

The test system of data set [6] is catalepsy induced by tetrabenazine. As to the kind of experiment: Test 4: inhibition of tetrabenazine-induced catalepsy. The data set is classed as in vivo. As to conditions: for TI (Test 4), LD/ED quotient: LD50 / ED of Test 4; for ED50: Mus musculus, sc, read-out: ED, s.c. dose which inhibits the catalepsy induced by tetrabenazine in 50% of the mice (Test 4). How it is done: as §4, §1, §2

For the next data set, the system named is stereotypy. As to the kind of experiment: Test 8: induction of stereotypy. It is filed as in vivo. Particulars: Rattus norvegicus, sc, rats; ">" = inactive in the given dose; read-out: Lowest s.c. dose which still induces stereotypy (Test 8). How it is done: 8. The lowest s.c. dose which still induces stereotypy, in rats.
(§5) Tests 7-10 are carried out in cats and rats, the doses are expressed in micromole/kg.
as §2

A short description of data set [7]: Overall comparison with Nomifensine in the pharmacological tests. It is filed as in vivo. How it is done:
The pharmacological activity of the compounds of the present invention is determined by the following tests:
as §1, §5

The test system of data set [8] is blood pressure and nictitating membrane. As to the kind of experiment: Test 7: blood pressure and nictitating membrane effect. The data set is classed as in vivo. Particulars: Felis catus, iv, cats; ">" = inactive in the given dose; read-out: Lowest i.v. dose which still increases the blood pressure and nictitating membrane effect (Test 7). How it is done: as §5, §2

The next data set has as its system spontaneous motility. As to the kind of experiment: Test 3: spontaneous motility. The data set is classed as in vivo. As to conditions: for TI (Test 3), LD/ED quotient: LD50 / ED of Test 3; for minimal effective dose: Mus musculus, ip, read-out: ED, lowest i.p. dose which still decreases the spontaneous motility (Test 3, -). The method, then: 3. Lowest i.p. dose which still increases or decreases the spontaneous motility of the mice.
as §1
In Test 3 "+=motility increase" and "-=motility decrease."

Another data set concerns prolactine level. The experiment in a line: Test 10: decrease of prolactine level in ovariectomised rats. The data set is classed as in vivo. Particulars: Rattus norvegicus, 96 h, after 4 days treatment with oestradiol 0.073 umole/kg, read-out: Dose which induces a significant decrease of the prolactine level (Test 10). How it is done: 10. The dose which induces a significant decrease of the prolactine level after 4 days treatment with a dose of 0.073 umole/kg of oeastradiol, on three weeks earlier ovariectomised rats.
as §5, §2

Counter-ions that a name gives are not always drawn.

Regarding `CCNCC(=O)Nc1cccc2c1CN(C)CC2c1ccc(C)cc1` (stereo not shown) [Compound H, 8-ethylamino-acetyl-amino-2-methyl-4-p-tolyl-1,2,3,4-tetrahydro-isoquinoline maleate], in data set [1], the “TI (Test 6), LD/ED quotient” value was 16 and the minimal effective dose was determined as 44 µmol/kg. In data set [2], the median lethal dose (LD50) at 96 h came to 706 µmol/kg. Further, in [3], the “TI (Test 5), LD/ED quotient” value amounted to 59 and the ED50 was determined as 12 µmol/kg. Moreover, in [4], the “TI (Test 2), LD/ED quotient” value is 21 and the ED50 came out at 33 µmol/kg. The “Quotient of the ED values of Columns 2 and 4” value in data set [5] is listed as 0,3. Further, in data set [6], the “TI (Test 4), LD/ED quotient” value turned out to be 7 and the ED50 turned out to be 99 µmol/kg. Also, in the data set with stereotypy, the minimal effective dose came to 183 µmol/kg. In addition, the “Therapeutical index (in words)” value in [7] (all tests) is recorded as “good therapeutical index”. Moreover, the minimal effective dose in [8] stood at 2.2 µmol/kg. In addition, in the data set on spontaneous motility, the “TI (Test 3), LD/ED quotient” value is listed as 32 and the minimal effective dose came out at 22 µmol/kg.
With `CCOC(=O)Nc1cccc2c1CN(C)CC2c1ccc(Cl)cc1` (stereo not shown) [Compound I, 8-ethoxycarbonylamino-4-p-chloro-phenyl-2-methyl-1,2,3,4-tetrahydroisoquinoline], the “TI (Test 6), LD/ED quotient” value in data set [1] worked out at 84. For the same molecule, the minimal effective dose in data set [1] is 26 µmol/kg; with stereotypy, 21 µmol/kg; in data set [8], 1.3 µmol/kg; with prolactine level, 26 µmol/kg; in the data set on spontaneous motility, 7.9 µmol/kg. The “Toxicity compared with Nomifensine (in words)” value in data set [2] was “toxicity is much lower”. In data set [2], this molecule registered a median lethal dose (LD50) at 96 h of 2180 µmol/kg. Further, the “TI (Test 5), LD/ED quotient” value in data set [3] amounted to 1360. The results for the ED50 in [3], in data set [4] and in data set [6] were 1.6 µmol/kg, 55 µmol/kg and 13 µmol/kg, respectively. The “TI (Test 2), LD/ED quotient” value in [4] came to 40. Further, the “Quotient of the ED values of Columns 2 and 4” value in data set [5] is on record as 4,2. Moreover, the “Antidepressant versus antiparkinson profile (in words)” value in [5] (from quotient ED2:ED4) was “relatively a stronger antidepressant than an antiparkinsone agent”. Moreover, the “TI (Test 4), LD/ED quotient” value in data set [6] is listed as 167. In addition, the “Activity compared with Nomifensine (in words)” value in [7] (all tests) is recorded as “activity is higher than that of Nomifensine”. In addition, the “Therapeutical index relative to that of Nomifensine” value in data set [7] (various tests) is listed as 2-6,8 times higher. The “TI (Test 3), LD/ED quotient” value with spontaneous motility was found to be 275.
